# In patent publication US20080234262A1 (Wyeth, priority 2007, published 2008):
# Legend:
# PI3K = PI3K (Homo sapiens, UniProt P42336); assay: Fluorescence polarization assay for PI3K; type: biochemical; conditions: PI3Kα; read-out: PI3Kα IC50;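 note: PI3K kinase reaction on PIP2 with ATP, 30-60 min, product sensed by GST-GRP with red probe in fluorescence polarization (mP), controls without enzyme and at zero time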
# prostate line LNCap = assay: In vitro cell culture growth assay (MTS), LNCap; type: cell-based, human; conditions: LNCap cells, three days after drug treatment
# breast line MDA468 = assay: In vitro cell culture growth assay (MTS), MDA468; type: cell-based, human; conditions: MDA468 cells, three days after drug treatment
# In short: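 MDA468 or LNCap cells received inhibitors one day after plating and were grown for three days. Viable cell density read by MTS conversion, absorbance 490 nm, expressed as percent of control growth versus vehicle-treated cells on the same plate.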
# Chain of PI3K (P42336 whole entry): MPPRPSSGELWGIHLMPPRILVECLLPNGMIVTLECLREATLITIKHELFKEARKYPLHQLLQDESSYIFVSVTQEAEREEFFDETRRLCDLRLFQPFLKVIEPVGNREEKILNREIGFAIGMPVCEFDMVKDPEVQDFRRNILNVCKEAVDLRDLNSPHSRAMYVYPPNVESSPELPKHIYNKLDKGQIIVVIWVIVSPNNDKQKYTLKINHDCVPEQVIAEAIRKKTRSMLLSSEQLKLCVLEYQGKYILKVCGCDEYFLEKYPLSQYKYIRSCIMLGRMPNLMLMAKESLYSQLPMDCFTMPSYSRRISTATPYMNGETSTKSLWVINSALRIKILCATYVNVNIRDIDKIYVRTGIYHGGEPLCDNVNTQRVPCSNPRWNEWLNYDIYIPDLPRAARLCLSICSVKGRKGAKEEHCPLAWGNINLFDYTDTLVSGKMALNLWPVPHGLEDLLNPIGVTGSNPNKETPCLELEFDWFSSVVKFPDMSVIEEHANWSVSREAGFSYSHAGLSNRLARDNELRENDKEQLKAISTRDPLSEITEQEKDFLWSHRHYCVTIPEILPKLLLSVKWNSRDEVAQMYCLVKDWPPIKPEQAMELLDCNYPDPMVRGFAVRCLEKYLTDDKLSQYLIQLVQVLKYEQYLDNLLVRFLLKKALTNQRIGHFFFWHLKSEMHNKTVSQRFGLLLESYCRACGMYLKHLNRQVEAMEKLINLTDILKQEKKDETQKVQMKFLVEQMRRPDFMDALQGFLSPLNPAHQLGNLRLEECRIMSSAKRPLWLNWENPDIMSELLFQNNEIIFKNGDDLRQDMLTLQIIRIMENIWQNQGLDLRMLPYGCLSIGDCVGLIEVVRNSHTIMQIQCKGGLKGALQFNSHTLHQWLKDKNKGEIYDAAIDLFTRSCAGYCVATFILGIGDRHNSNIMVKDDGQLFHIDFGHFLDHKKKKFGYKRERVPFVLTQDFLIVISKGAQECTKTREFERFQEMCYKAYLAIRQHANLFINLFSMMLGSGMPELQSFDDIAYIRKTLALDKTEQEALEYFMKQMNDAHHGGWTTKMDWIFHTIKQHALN
# Chain of PI3K (P27986 whole entry partner): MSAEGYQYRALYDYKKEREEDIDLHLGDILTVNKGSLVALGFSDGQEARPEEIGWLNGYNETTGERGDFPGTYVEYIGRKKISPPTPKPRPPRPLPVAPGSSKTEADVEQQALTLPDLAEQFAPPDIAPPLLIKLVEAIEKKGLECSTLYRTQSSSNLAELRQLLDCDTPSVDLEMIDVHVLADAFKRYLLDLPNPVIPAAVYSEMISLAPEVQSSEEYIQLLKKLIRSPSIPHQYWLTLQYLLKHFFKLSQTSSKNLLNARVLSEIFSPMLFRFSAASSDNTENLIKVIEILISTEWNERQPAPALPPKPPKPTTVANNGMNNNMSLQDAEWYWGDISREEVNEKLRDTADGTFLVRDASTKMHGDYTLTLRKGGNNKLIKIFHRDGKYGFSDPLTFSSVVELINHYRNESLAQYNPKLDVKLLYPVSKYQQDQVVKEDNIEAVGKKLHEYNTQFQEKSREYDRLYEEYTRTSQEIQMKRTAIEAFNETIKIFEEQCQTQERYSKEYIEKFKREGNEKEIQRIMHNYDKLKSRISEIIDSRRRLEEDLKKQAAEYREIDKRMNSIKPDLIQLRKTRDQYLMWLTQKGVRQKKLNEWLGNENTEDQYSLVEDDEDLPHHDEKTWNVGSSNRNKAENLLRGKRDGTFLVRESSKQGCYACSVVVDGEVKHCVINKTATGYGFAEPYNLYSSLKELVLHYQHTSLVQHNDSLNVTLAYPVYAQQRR
IC50 (PI3K),"IC50 (prostate line LNCap; Homo sapiens, LNCaP, 72 h)",IC50 (prostate line LNCap),SMILES,"IC50 (breast line MDA468; Homo sapiens, 72 h)",IC50 (breast line MDA468)
1490 nM,320 nM,–,c1cc2cc(-c3nc(N4CCOCC4)c4cnn(C5CCC6(CC5)OCCO6)c4n3)ccc2[nH]1 [Compound 142],2200 nM,–
173 nM,400 nM,–,"C#CCNC(=O)Nc1ccc(-c2nc(N3CCOCC3)c3cnn(C4CCN(Cc5ccccc5)CC4)c3n2)cc1 [Compound 312, 1-{4-[1-(1-benzylpiperidin-4-yl)-4-morpholin-4-yl-1H-pyrazolo[3,4-d]pyrimidin-6-yl]phenyl}-3-prop-2-yn-1-ylurea]",3900 nM,–
1010 nM,12000 nM,–,"c1ccc(-n2ncc3c(N4CCOCC4)nc(-c4cc5ccccc5[nH]4)nc32)cc1 [Compound 111, 6-(1H-indol-2-yl)-4-morpholin-4-yl-1-phenyl-1H-pyrazolo[3,4-d]pyrimidine]",23000 nM,–
604 nM,10100 nM,–,"O=C(NO)Nc1ccc(-c2nc(N3CCOCC3)c3cnn(C4CCN(C(=O)c5cccnc5)CC4)c3n2)cc1 [Compound 550, 1-hydroxy-3-(4-{4-morpholin-4-yl-1-[1-(pyridin-3-ylcarbonyl)piperidin-4-yl]-1H-pyrazolo[3,4-d]pyrimidin-6-yl}phenyl)urea]",7200 nM,–
6660 nM,39000 nM,–,"Nc1ccnc(-c2nc(N3CCOCC3)c3cnn(C4CCN(C(=O)c5cccnc5)CC4)c3n2)c1 [Compound 434, 2-{4-morpholin-4-yl-1-[1-(pyridin-3-ylcarbonyl)piperidin-4-yl]-1H-pyrazolo[3,4-d]pyrimidin-6-yl}pyridin-4-amine]",60000 nM,–
1910 nM,15000 nM,–,c1ccc(-n2ncc3c(N4CCOCC4)nc(-c4cc5ccccc5o4)nc32)cc1 [Compound 112],60000 nM,–
1670 nM,150 nM,–,"CC(C)C(=O)N1CCC(n2ncc3c(N4CCOCC4)nc(-c4ccc(NC(=O)NCCF)cc4)nc32)CC1 [Compound 825, 1-(2-fluoroethyl)-3-{4-[1-(1-isobutyrylpiperidin-4-yl)-4-morpholin-4-yl-1H-pyrazolo[3,4-d]pyrimidin-6-yl]phenyl}urea]",620 nM,–
750 nM,–,1200 nM,"COC(=O)Nc1ccc(-c2nc(N3CCOCC3)c3cnn(C4CCN(Cc5ccc(F)cc5)CC4)c3n2)cc1 [Compound 694, methyl (4-{1-[1-(4-fluorobenzyl)piperidin-4-yl]-4-morpholin-4-yl-1H-pyrazolo[3,4-d]pyrimidin-6-yl}phenyl)carbamate]",–,2600 nM
30 nM,–,27 nM,"CNC(=O)Nc1ccc(-c2nc(N3CCOCC3)c3cnn(C4CCN(Cc5ccc(Br)nc5)CC4)c3n2)cc1 [Compound 634, 1-[4-(1-{1-[(6-bromopyridin-3-yl)methyl]piperidin-4-yl}-4-morpholin-4-yl-1H-pyrazolo[3,4-d]pyrimidin-6-yl)phenyl]-3-methylurea]",–,80 nM
20 nM,110 nM,–,Oc1cccc(-c2nc(N3CCOCC3)c3cnn(C4CCN(Cc5ccc[nH]5)CC4)c3n2)c1 [Example 14],600 nM,–
10500 nM,3100 nM,–,CN(C)S(=O)(=O)c1cccc(-c2nc(N3CCOCC3)c3cnn(C4CCN(Cc5ccccc5)CC4)c3n2)c1 [Example 69],4000 nM,–
72 nM,95 nM,–,"CNC(=O)Nc1ccc(-c2nc(N3CCOCC3)c3cnn(C4CCN(Cc5cncc(Br)c5)CC4)c3n2)cc1 [Example 393, 1-[4-(1-{1-[(5-bromopyridin-3-yl)methyl]piperidin-4-yl}-4-morpholin-4-yl-1H-pyrazolo[3,4-d]pyrimidin-6-yl)phenyl]-3-methylurea]",600 nM,–
18 nM,–,40 nM,"O=C(Nc1ccc(-c2nc(N3CCOCC3)c3cnn(C4CCN(C(=O)c5cccnc5)CC4)c3n2)cc1)Nc1ccsc1 [Compound 658, 1-(4-{4-morpholin-4-yl-1-[1-(pyridin-3-ylcarbonyl)piperidin-4-yl]-1H-pyrazolo[3,4-d]pyrimidin-6-yl}phenyl)-3-(3-thienyl)urea]",–,75 nM
12000 nM,2500 nM,–,"CC(C)OC(=O)N1CCC(n2ncc3c(N4CCOCC4)nc(-c4ccc(NC(=O)Nc5ccccn5)cc4)nc32)CC1 [Compound 837, isopropyl 4-(4-morpholin-4-yl-6-{4-[(pyridin-2-ylcarbamoyl)amino]phenyl}-1H-pyrazolo[3,4-d]pyrimidin-1-yl)piperidine-1-carboxylate]",4600 nM,–
442 nM,–,3700 nM,"CC(=O)Nc1ccc(-c2nc(N3CCOCC3)c3cn[nH]c3n2)cc1 [Compound 926, N-[4-(4-morpholin-4-yl-1H-pyrazolo[3,4-d]pyrimidin-6-yl)phenyl]acetamide]",–,8500 nM
1810 nM,800 nM,–,"CONC(=O)Nc1ccc(-c2nc(N3CCOCC3)c3cnn(C4CCN(C(=O)c5cccnc5)CC4)c3n2)cc1 [Compound 553, 1-methoxy-3-(4-{4-morpholin-4-yl-1-[1-(pyridin-3-ylcarbonyl)piperidin-4-yl]-1H-pyrazolo[3,4-d]pyrimidin-6-yl}phenyl)urea]",3000 nM,–
149 nM,2200 nM,–,"CNC(=O)Nc1ccc(-c2nc(N3CCOCC3)c3cnn(C4CCN(C(=O)NC)CC4)c3n2)cc1 [Example 477, N-methyl-4-(6-{4-[(methylcarbamoyl)amino]phenyl}-4-morpholin-4-yl-1H-pyrazolo[3,4-d]pyrimidin-1-yl)piperidine-1-carboxamide]",1800 nM,–

IC50 (PI3K),"IC50 (prostate line LNCap; Homo sapiens, LNCaP, 72 h)",IC50 (prostate line LNCap),SMILES,"IC50 (breast line MDA468; Homo sapiens, 72 h)",IC50 (breast line MDA468)
2420 nM,–,4200 nM,"c1cc2cc(-c3nc(N4CCOCC4)c4cnn(C5CCCCO5)c4n3)ccc2[nH]1 (stereo not shown) [Compound 928, 6-(1H-indol-5-yl)-4-morpholin-4-yl-1-(tetrahydro-2H-pyran-2-yl)-1H-pyrazolo[3,4-d]pyrimidine]",–,1000 nM
1230 nM,2600 nM,–,"CC(C)(C)OC(=O)N1CCC(n2ncc3c(N4CCOCC4)nc(-c4ccc(NC(=O)Nc5ncccn5)cc4)nc32)CC1 [Compound 886, tert-butyl 4-(4-morpholin-4-yl-6-{4-[(pyrimidin-2-ylcarbamoyl)amino]phenyl}-1H-pyrazolo[3,4-d]pyrimidin-1-yl)piperidine-1-carboxylate]",6700 nM,–
–,3000 nM,–,"Nc1ccc(-c2nc(N3CCOCC3)c3cnn(-c4ccccc4)c3n2)cc1 [Compound 106, 4-(4-morpholin-4-yl-1-phenyl-1H-pyrazolo[3,4-d]pyrimidin-6-yl)aniline4-(4-morpholin-4-yl-1-phenyl-1H-pyrazolo[3,4-d]pyrimidin-6-yl)aniline]",11000 nM,–
–,3400 nM,–,c1cc2cc(-c3nc(N4CCOCC4)c4cnn([C@@H]5CCCNC5)c4n3)ccc2[nH]1 [Compound 168],10000 nM,–
–,1400 nM,–,"O=CNc1ccc(-c2nc(N3CCOCC3)c3cnn(C4CCN(Cc5ccccc5)CC4)c3n2)cc1 [Compound 485, N-{4-[1-(1-benzylpiperidin-4-yl)-4-morpholin-4-yl-1H-pyrazolo[3,4-d]pyrimidin-6-yl]phenyl}formamide]",4500 nM,–
–,8000 nM,–,CC(=O)Nc1cccc(-c2nc(N3CCOCC3)c3cnn(C4CCN(Cc5ccccc5)CC4)c3n2)c1 [Compound 78],12000 nM,–
–,100 nM,–,Nc1ccc(-c2nc(N3CCOCC3)c3cnn(C4CCN(Cc5ccccc5)CC4)c3n2)cn1 [Compound 155],1000 nM,–
–,< 0.8 nM,–,"COC(=O)N1CCC(n2ncc3c(N4CCOCC4)nc(-c4ccc(NC(=O)Nc5ccc(CO)cc5)cc4)nc32)CC1 [Compound 912, methyl 4-{6-[4-({[4-(hydroxymethyl)phenyl]carbamoyl}amino)phenyl]-4-morpholin-4-yl-1H-pyrazolo[3,4-d]pyrimidin-1-yl}piperidine-1-carboxylate]",< 0.8 nM,–
–,2000 nM,–,Nc1cccc(-c2nc(N3CCOCC3)c3cnn(C4CCN(Cc5ccccc5)CC4)c3n2)c1 [Example 60],5500 nM,–
–,7000 nM,–,"Nc1ccc(-c2nc(N3CCOCC3)c3cnn(-c4ccccc4)c3n2)nc1 [Compound 438, 6-(4-morpholin-4-yl-1-phenyl-1H-pyrazolo[3,4-d]pyrimidin-6-yl)pyridin-3-amine]",60000 nM,–
–,1400 nM,–,"Oc1ccc(-c2nc(N3CCOCC3)c3cnn(C4CCN(Cc5ccccc5)CC4)c3n2)cc1 [Compound 232, 4-[1-(1-benzylpiperidin-4-yl)-4-morpholin-4-yl-1H-pyrazolo[3,4-d]pyrimidin-6-yl]phenol]",4000 nM,–
–,5100 nM,–,O=CNc1cccc(-c2nc(N3CCOCC3)c3cnn(C4CCN(Cc5ccccc5)CC4)c3n2)c1 [Example 77],9000 nM,–
–,410 nM,–,"Nc1ccc(-c2nc(N3CCOCC3)c3cnn(-c4ccccc4)c3n2)cn1 [Example 129, 5-(4-morpholin-4-yl-1-phenyl-1H-pyrazolo[3,4-d]pyrimidin-6-yl)pyridin-2-amine]",1300 nM,–
–,4000 nM,–,"CNS(=O)(=O)Nc1ccc(-c2nc(N3CCOCC3)c3cnn(C4CCN(C(=O)OC(C)(C)C)CC4)c3n2)cc1 [Compound 951, tert-butyl 4-(6-{4-[(methylsulfamoyl)amino]phenyl}-4-morpholin-4-yl-1H-pyrazolo[3,4-d]pyrimidin-1-yl)piperidine-1-carboxylate]",7800 nM,–
–,60000 nM,–,"Nc1cccc(-c2nc(N3CCOCC3)c3cnn(-c4ccccc4)c3n2)n1 [Compound 439, 6-(4-morpholin-4-yl-1-phenyl-1H-pyrazolo[3,4-d]pyrimidin-6-yl)pyridin-2-amine]",60000 nM,–
–,1200 nM,–,NCCC(=O)Nc1ccc(-c2nc(N3CCOCC3)c3cnn(-c4ccccc4)c3n2)cc1 [Compound 134],1300 nM,–
